The source of these data is ChEMBL document CHEMBL5465560, “Selectivity Literature for EUbOPEN Chemogenomic Library” (2024).

For experiment [1], the target named is Proto-oncogene tyrosine-protein kinase Src (Homo sapiens, UniProt P12931). The experiment can be described thus: Selectivity interaction (ActivX KiNativ screen (ex vivo kinase selectivity in human PBMCs)) EUB0001619a SRC. The class given is cell-based. As to conditions: PBMC, at 1 µM.
Experiment [2] addresses T1, Serine/threonine-protein kinase ULK2 (Homo sapiens) (UniProt Q8IYT8).
T1 sequence (whole entry): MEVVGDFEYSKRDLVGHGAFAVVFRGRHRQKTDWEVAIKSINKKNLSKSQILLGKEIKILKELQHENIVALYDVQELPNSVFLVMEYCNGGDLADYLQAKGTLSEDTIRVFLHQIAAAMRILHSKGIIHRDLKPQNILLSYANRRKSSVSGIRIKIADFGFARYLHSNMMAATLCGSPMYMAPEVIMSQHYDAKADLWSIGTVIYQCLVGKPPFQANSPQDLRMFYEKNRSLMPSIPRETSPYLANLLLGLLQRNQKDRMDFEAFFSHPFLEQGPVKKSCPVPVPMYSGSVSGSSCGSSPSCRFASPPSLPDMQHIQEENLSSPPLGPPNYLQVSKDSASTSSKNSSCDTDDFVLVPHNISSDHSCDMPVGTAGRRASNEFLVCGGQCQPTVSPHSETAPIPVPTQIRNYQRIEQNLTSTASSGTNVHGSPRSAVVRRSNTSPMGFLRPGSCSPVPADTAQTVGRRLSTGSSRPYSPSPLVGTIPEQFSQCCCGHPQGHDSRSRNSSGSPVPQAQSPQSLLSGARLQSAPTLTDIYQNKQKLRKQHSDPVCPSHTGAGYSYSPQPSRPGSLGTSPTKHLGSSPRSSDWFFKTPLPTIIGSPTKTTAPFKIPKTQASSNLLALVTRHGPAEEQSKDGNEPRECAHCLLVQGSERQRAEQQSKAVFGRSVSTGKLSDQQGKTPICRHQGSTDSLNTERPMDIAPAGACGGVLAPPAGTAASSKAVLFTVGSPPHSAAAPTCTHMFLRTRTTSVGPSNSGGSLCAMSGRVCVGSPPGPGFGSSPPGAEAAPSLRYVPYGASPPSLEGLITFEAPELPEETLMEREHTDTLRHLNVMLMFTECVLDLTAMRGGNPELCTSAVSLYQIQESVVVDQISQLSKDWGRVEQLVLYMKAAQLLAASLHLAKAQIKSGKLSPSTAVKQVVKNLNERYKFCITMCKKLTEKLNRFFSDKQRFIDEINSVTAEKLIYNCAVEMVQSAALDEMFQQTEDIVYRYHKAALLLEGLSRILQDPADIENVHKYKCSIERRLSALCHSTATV
The experiment can be described thus: Selectivity interaction (KinomeScan (DiscoverX)) EUB0000666a ULK2. The note with it: at 10 µM.

Experiment [3] deals with T2, Mitogen-activated protein kinase kinase kinase 5 (Homo sapiens) (UniProt Q99683).
T2 sequence (whole entry): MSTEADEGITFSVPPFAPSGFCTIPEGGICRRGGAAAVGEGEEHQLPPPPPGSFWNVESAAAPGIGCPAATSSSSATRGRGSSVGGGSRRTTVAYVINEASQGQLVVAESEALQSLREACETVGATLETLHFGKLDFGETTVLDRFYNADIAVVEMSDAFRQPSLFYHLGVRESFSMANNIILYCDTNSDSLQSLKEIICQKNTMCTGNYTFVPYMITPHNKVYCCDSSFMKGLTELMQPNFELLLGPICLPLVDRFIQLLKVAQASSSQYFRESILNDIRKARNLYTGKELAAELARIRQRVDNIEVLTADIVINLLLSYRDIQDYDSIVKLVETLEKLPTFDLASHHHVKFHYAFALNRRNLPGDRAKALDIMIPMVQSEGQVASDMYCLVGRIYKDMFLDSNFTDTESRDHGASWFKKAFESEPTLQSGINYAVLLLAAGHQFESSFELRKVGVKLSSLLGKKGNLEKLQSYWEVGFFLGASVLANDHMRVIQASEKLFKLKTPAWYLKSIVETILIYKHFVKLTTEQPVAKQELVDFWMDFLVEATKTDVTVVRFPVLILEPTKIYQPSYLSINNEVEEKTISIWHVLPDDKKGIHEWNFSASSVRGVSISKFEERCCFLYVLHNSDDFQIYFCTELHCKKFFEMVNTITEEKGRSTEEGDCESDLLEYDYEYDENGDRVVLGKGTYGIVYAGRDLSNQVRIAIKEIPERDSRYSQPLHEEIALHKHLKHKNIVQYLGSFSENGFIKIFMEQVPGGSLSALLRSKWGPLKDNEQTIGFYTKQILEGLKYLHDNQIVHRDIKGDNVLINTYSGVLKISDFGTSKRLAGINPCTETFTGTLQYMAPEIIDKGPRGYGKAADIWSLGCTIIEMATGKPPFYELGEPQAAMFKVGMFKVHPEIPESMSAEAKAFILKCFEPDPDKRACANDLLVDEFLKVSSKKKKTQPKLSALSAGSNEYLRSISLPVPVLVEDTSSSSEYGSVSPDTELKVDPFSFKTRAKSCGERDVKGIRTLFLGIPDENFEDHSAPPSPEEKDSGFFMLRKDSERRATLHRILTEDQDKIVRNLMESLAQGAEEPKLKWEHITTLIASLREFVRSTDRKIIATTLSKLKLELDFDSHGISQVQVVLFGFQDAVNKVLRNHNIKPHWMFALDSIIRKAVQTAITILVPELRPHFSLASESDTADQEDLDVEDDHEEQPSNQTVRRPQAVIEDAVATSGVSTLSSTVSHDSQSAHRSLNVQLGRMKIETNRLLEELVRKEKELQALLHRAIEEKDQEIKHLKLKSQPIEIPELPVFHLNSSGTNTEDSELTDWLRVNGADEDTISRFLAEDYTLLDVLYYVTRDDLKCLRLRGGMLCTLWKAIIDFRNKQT
The experiment can be described thus: Selectivity interaction (KinomeScan (DiscoverX)) EUB0000607a MAP3K5. The note with it: at 10 µM.

Experiment [4] deals with T3, Casein kinase I isoform alpha-like (Homo sapiens) (UniProt Q8N752).
T3 sequence (whole entry): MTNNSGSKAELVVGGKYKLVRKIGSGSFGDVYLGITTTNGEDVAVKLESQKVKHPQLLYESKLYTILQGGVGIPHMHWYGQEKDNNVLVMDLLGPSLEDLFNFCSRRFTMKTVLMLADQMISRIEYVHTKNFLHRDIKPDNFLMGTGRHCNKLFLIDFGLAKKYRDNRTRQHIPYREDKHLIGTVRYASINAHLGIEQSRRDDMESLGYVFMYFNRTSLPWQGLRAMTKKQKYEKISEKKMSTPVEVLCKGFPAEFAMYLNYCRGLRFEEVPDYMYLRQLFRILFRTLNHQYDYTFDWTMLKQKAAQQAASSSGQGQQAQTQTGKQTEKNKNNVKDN
The experiment can be described thus: Selectivity interaction (KinomeScan (DiscoverX)) EUB0000618a CSNK1A1L. The note with it: at 10 µM.

Experiment [5] concerns the target Dual specificity protein kinase CLK4 (Homo sapiens, UniProt Q9HAZ1). The experiment can be described thus: Selectivity interaction (KinomeScan (DiscoverX)) EUB0000092b CLK4. As to conditions: at 10 µM.
For experiment [6], the target named is Phosphatidylinositol 4,5-bisphosphate 3-kinase catalytic subunit gamma isoform (Homo sapiens) (UniProt P48736). The experiment can be described thus: Selectivity interaction (KinomeScan (DiscoverX)) EUB0001079a PIK3CG. As to conditions: at 1 µM.
Phosphatidylinositol 4,5-bisphosphate 3-kinase catalytic subunit gamma isoform (Homo sapiens), sequence (P48736 whole entry, looked up, canonical isoform): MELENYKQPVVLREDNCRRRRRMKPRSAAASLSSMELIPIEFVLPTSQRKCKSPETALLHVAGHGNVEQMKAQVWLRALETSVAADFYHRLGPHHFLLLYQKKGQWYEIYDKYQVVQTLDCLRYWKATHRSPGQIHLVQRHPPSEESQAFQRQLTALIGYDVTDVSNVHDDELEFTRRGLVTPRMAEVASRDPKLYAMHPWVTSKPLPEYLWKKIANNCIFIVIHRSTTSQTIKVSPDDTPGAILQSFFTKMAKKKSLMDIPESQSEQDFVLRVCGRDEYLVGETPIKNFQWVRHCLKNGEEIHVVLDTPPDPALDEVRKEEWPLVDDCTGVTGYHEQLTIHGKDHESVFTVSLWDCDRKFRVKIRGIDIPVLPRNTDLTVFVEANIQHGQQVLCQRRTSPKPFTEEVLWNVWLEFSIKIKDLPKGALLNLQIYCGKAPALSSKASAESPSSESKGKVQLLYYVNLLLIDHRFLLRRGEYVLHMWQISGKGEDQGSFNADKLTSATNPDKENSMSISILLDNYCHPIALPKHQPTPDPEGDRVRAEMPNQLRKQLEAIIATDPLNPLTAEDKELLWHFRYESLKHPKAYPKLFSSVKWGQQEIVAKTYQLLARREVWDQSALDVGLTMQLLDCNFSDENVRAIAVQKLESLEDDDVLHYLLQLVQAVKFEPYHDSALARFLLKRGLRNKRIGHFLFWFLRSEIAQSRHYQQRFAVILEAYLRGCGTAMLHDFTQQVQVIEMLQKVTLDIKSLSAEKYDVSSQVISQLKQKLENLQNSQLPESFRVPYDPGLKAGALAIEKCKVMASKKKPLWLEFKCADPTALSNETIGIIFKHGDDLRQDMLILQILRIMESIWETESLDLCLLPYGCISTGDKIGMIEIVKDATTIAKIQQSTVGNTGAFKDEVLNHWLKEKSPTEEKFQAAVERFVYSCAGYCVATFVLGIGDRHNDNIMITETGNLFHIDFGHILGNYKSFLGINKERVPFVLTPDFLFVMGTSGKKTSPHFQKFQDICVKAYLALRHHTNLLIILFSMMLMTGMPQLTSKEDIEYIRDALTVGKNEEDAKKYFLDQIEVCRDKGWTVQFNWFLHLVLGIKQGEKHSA

Dual specificity protein kinase CLK4, sequence (Q9HAZ1 whole entry, looked up, canonical isoform): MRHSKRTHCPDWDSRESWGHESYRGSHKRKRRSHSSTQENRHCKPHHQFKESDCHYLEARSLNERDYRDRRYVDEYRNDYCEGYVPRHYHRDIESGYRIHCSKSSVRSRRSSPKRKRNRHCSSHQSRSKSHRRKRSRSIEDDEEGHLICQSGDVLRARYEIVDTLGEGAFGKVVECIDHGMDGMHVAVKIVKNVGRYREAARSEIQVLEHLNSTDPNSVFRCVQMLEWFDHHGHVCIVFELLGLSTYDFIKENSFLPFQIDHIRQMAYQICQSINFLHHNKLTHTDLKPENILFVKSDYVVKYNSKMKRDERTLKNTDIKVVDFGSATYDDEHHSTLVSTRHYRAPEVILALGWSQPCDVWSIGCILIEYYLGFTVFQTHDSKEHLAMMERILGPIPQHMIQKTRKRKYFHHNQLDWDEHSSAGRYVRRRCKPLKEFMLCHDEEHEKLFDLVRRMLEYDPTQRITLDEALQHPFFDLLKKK
Proto-oncogene tyrosine-protein kinase Src, sequence (P12931 2-536 limits assumed): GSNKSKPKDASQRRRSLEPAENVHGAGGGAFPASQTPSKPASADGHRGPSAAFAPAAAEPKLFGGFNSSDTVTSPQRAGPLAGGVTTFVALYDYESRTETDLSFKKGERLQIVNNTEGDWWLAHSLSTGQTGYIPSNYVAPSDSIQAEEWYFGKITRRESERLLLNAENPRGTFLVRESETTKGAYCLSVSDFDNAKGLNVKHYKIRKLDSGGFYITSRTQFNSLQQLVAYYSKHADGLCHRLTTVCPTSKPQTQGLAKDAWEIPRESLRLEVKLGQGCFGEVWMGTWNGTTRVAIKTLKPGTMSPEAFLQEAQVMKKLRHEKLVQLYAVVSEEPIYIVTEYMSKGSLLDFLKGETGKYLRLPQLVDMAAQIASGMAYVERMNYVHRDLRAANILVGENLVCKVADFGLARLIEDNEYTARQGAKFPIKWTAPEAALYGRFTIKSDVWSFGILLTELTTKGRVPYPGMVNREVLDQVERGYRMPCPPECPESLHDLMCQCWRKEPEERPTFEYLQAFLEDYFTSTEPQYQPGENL

Consider `N#Cc1cccc(-c2c[nH]c3ncnc(N4CCOCC4)c23)c1`, for which the % of inhibition in experiment [1] is -9%.

Compound `O=C(NOC[C@H](O)CO)c1ccc(F)c(F)c1Nc1ccc(I)cc1F` returned a % of control in experiment [2] of 97%.

For `CNC(=O)Nc1ccc(-c2nc(N3CC4CCC(C3)O4)c3cnn(C4CCC5(CC4)OCCO5)c3n2)cc1`, in experiment [3], the % of control is 85%.

Regarding `O[C@H]1CC[C@H](Nc2ncc3nc(Nc4c(F)cc(F)cc4F)n([C@H]4CCOC4)c3n2)CC1`, the % of control in experiment [4] is 55%.

In experiment [5], `CCC(=O)N1CCN(c2ccc(-n3c(=O)ccc4cnc5ccc(-c6cnc7ccccc7c6)cc5c43)cc2C(F)(F)F)CC1` displayed a % of control of 49%.

Compound `Nc1cnc(N2CCc3cc(S(=O)(=O)Nc4c(F)cc(Cl)cc4F)cc(N4CCCC4=O)c32)nc1` [TP-020n] returned a % of control in experiment [6] of 81%.
